The numbers were not newly measured in patent US20070048371A1, “Pharmaceutical formulations/composition of guanfacine suitable for single dose form administration daily” (priority 2005, published 2007), which cites them from elsewhere.

Each structure is given as a SMILES string. Counter-ions that a name gives are not always drawn.

For this data set the following is noted: white to off-white powder; cited from earlier work.

Consider `N=C(N)NC(=O)Cc1c(Cl)cccc1Cl` [Guanfacine hydrochloride, N-amidino-2-(2,6-dichlorophenyl) acetamide hydrochloride], for which the solubility in acetone result is recorded as “slightly soluble”; the “solubility in water and alcohol” value is given as “sparingly soluble”.
